Our source for the IC50 values is patent US20170198006A1, “PRMT5 INHIBITORS AND USES THEREOF” (Epizyme, Inc., priority 2014, published 2017).

Some results are limits rather than exact numbers.

T1 sequence (O14744 with tags, fused parts or gaps): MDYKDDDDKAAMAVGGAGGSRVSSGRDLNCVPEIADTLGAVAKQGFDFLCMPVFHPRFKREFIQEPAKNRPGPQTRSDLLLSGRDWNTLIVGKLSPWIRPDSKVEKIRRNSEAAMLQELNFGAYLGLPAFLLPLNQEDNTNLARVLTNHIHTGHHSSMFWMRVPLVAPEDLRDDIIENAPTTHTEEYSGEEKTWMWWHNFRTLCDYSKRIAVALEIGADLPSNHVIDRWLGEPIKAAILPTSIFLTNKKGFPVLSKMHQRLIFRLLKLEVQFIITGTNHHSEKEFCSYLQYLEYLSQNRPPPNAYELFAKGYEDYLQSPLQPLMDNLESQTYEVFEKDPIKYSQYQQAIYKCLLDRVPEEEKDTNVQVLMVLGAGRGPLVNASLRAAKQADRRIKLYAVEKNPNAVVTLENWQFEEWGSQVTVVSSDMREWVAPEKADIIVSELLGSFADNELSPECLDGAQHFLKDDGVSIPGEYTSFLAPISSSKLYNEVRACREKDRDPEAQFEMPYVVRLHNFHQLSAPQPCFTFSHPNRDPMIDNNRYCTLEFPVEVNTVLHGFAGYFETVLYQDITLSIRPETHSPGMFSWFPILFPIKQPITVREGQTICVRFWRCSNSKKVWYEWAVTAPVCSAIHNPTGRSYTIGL
T1 sequence (Q9BQA1 with tags, fused parts or gaps partner limits assumed): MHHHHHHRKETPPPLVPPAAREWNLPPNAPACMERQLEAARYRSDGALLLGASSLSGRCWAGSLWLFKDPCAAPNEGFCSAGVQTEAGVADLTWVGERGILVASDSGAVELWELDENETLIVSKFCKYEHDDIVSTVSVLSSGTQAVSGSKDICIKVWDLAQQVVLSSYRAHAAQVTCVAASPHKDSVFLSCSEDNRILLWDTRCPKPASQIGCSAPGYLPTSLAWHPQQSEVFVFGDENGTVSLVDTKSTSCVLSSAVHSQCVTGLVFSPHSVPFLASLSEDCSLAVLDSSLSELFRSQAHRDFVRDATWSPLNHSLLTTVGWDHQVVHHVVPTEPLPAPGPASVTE

This experiment has as its target T1, PRMT5/MEP50 (Homo sapiens, UniProt O14744).
T1 construct: Flag-PRMT5; made in house; host or cells: Spodoptera frugiperda (SF9), baculovirus
Nature of the experiment: PRMT5 Biochemical Assay (PRMT5/MEP50 enzyme assay on histone H4 peptide substrate, 3H-SAM Flashplate). Particulars: PRMT5 biochemical assay; read-out: Biochemical IC50. The text has this: S-adenosylmethionine (SAM), S-adenosylhomocysteine (SAH), bicine, KCl, Tween20, dimethylsulfoxide (DMSO), bovine skin gelatin (BSG), and Tris(2-carboxyethyl)phosphine hydrochloride solution (TCEP) were purchased from Sigma-Aldrich at the highest level of purity possible. ^3H-SAM was purchase from American Radiolabeled Chemicals with a specific activity of 80 Ci/mmol. 384-well streptavidin Flashplates were purchased from PerkinElmer.
Peptide representative of human histone H4 residues 1-15 was synthesized with a C-terminal linker-affinity tag motif and a C-terminal amide cap by 21st Century Biochemicals.
The amplified genes were sublconed into pENTR/D/TEV (Life Technologies) and subsequently transferred by Gateway™ attL×attR recombination to pDEST8 baculvirus expression vector (Life Technologies).
Protein over-expression was accomplished by infecting exponentially growing Spodoptera frugiperda (SF9) cell culture at 1.2×10^6 cell/ml with a 5000 fold dilution of BIIC stock. Infections were carried out at 27° C. for 72 hours, harvested by centrifugation, and stored at −80° C. for purification.
Flag-PRMT5/6His-MeP50 was eluted with 300 mM Imidazole in the same buffer.
General Procedure for PRMT5/MEP50 Enzyme Assays on Peptide Substrates.
The assays were all performed in a buffer consisting of 20 mM Bicine (pH=7.6), 1 mM TCEP, 0.005% BSG, and 0.002% Tween20, prepared on the day of use. […] DMSO (1 ul) was added to Columns 11, 12, 23, 24, rows A-H for the maximum signal control and 1 ul of SAH, a known product and inhibitor of PRMT5/MEP50, was added to columns 11, 12, 23, 24, rows I-P for the minimum signal control. A cocktail (40 ul) containing the PRMT5/MEP50 enzyme and the peptide was added by Multidrop Combi (Thermo-Fisher). The compounds were allowed to incubate with PRMT5/MEP50 for 30 min at 25 degrees Celsius, then a cocktail (10 ul) containing ^3H-SAM was added to initiate the reaction (final volume=51 ul). […] The assays were stopped by the addition of non-radioactive SAM (10 ul) to a final concentration of 600 uM, which dilutes the ^3H-SAM to a level where its incorporation into the peptide substrate is no longer detectable. 50 ul of the reaction in the 384-well polypropylene plate was then transferred to a 384-well Flashplate and the biotinylated peptides were allowed to bind to the streptavidin surface for at least 1 hour before being washed three times with 0.1% Tween20 in a Biotek ELx405 plate washer. The plates were then read in a PerkinElmer TopCount plate reader to measure the quantity of ^3H-labeled peptide bound to the Flashplate surface, measured as disintegrations per minute (dpm) or alternatively, referred to as counts per minute (cpm).
Where dpm=disintegrations per minute, cmpd=signal in assay well, and min and max are the respective minimum and maximum signal controls.
Where top and bottom are the normally allowed to float, but may be fixed at 100 or 0 respectively in a 3-parameter fit. The Hill Coefficient normally allowed to float but may also be fixed at 1 in a 3-parameter fit. Y is the % inhibition and X is the compound concentration.
With `COc1cccc(C(=O)CC2NC(N3CCN(c4ccccc4)CC3)=NC2=O)c1` (stereo not drawn) [Compound 39-14], the IC50 lay within 101 to 1000 nM.

In the case of `CN(CCN1CCCN(Cc2ccccc2)CC1)C[C@H]1OC(n2cnc3c(N)ncnc32)[C@H](O)[C@@H]1O` (stereo partly drawn) [Compound 40-1], the IC50 was in the range of 101 to 1000 nM. Regarding `N#Cc1ccc(C(=O)CC2NC(N3CCN(c4ccccc4)CC3)=NC2=O)cc1` (stereo not drawn) [Compound 40-14], the IC50 is 1000 to 10000 nM. The result for `CN(CCN1CCC(Oc2ccccn2)CC1)C[C@H]1OC(n2cnc3c(N)ncnc32)[C@H](O)[C@@H]1O` (stereo partly drawn) [Compound 41-1] reads 101 to 1000 nM; that for `Cc1ccc(C(=O)CC2NC(N(C)CCc3ccccc3)=NC2=O)cc1` (stereo not drawn) [Compound 41-14], 1000 to 10000 nM. The result for `CCCN(CCN(C)C[C@H]1O[C@@H](n2cnc3c(N)ncnc32)[C@H](O)[C@@H]1O)CC1CC1` [Compound 42-1] reads 101 to 1000 nM; that for `O=C(CC1NC(N2CCN(c3ccccc3)CC2)=NC1=O)c1ccc(Cl)cc1` (stereo not drawn) [Compound 42-14], 101 to 1000 nM. Then `CN(CCN1CCC(c2ccccc2)CC1)CC1OC(n2cnc3c(N)ncnc32)[C@H](O)[C@@H]1O` (stereo partly drawn) [Compound 43-1], with 101 to 1000 nM; and `Cc1ccc(C(=O)CC2NC(N3CCN(c4cccnc4)CC3)=NC2=O)cc1` (stereo not drawn) [Compound 43-14], with 1000 to 10000 nM. On to `CC1CCN(CCN(C)C[C@H]2O[C@@H](n3cnc4c(N)ncnc43)[C@H](O)[C@@H]2O)CC1` [Compound 44-1], for which the IC50 is 101 to 1000 nM. The result for `Cc1ccc(C(=O)CC2NC(N3CCN(Cc4ccncc4)CC3)=NC2=O)cc1` (stereo not drawn) [Compound 44-14] reads 1000 to 10000 nM; that for `CN(CCN1CCN(CCc2ccccc2)CC1)C[C@H]1O[C@@H](n2cnc3c(N)ncnc32)[C@H](O)[C@@H]1O` [Compound 45-1], 101 to 1000 nM.

With `Cc1ccc(C(=O)CC2NC(N(C)CCN(C)c3ccccc3)=NC2=O)cc1` (stereo not drawn) [Compound 45-14], the IC50 is 10000 to 50000 nM. In the case of `CN(CCO)CCN(C)C[C@H]1O[C@@H](n2cnc3c(N)ncnc32)[C@H](O)[C@@H]1O` [Compound 46-1], the half-maximal inhibitory concentration (IC50) was 101 to 1000 nM. The result for `N#Cc1cccc(C(=O)CC2NC(N3CCN(c4ccccc4)CC3)=NC2=O)c1` (stereo not drawn) [Compound 46-14] reads 1000 to 10000 nM. The result for `CN(CCc1c[nH]cn1)CCN(C)C[C@H]1O[C@@H](n2cnc3c(N)ncnc32)[C@H](O)[C@@H]1O` [Compound 47-1] reads 101 to 1000 nM; that for `O=C(CC1NC(N2CCN(c3ccccc3)CC2)=NC1=O)c1cccc(Cl)c1` (stereo not drawn) [Compound 47-14], 101 to 1000 nM; that for `COc1ccccc1C(=O)CC1NC(N2CCC(c3ccccc3)CC2)=NC1=O` (stereo not drawn) [Compound 48-14], 101 to 1000 nM.

For `CN(CCN(CC[C@H](N)C(=O)OCc1ccccc1)C[C@H]1O[C@@H](n2cnc3c(N)ncnc32)[C@H](O)[C@@H]1O)C(=O)OCc1ccccc1` [Compound 49-1], the IC50 was below 100 nM. Regarding `O=C(CC1NC(N2CCN(c3ccccc3)CC2)=NC1=O)Nc1ccccc1Cl` (stereo not drawn) [Compound 49-14], the concentration for half-maximal inhibition (IC50) was in the range of 10000 to 50000 nM.

Consider `CCN(CCc1ccc(Cl)cc1)CCN(C)C[C@H]1O[C@@H](n2cnc3c(N)ncnc32)[C@H](O)[C@@H]1O` [Compound 50-1], for which the IC50 lay within 101 to 1000 nM. The result for `O=C(CC1NC(N2CCN(c3ccccc3)CC2)=NC1=O)Nc1cccc(Cl)c1` (stereo not drawn) [Compound 50-14] reads 1000 to 10000 nM; that for `CN(CCN(CCc1ccc(Cl)cc1)Cc1ccccc1)C[C@H]1O[C@@H](n2cnc3c(N)ncnc32)[C@H](O)[C@@H]1O` [Compound 51-1], 101 to 1000 nM. In the case of `O=C(CC1NC(N2CCN(c3ccccc3)CC2)=NC1=O)Nc1cccc(Cl)c1Cl` (stereo not drawn) [Compound 51-14], the IC50 was 10000 to 50000 nM. For the compound `CN(CCc1ccc(Cl)cc1)CCN(C)C[C@H]1O[C@@H](n2cnc3c(N)ncnc32)[C@H](O)[C@@H]1O` [Compound 52-1], the IC50 was 101 to 1000 nM.

On to `O=C(CC1NC(N2CCN(c3ccccc3)CC2)=NC1=O)NC1CCCCC1` (stereo not drawn) [Compound 52-14], for which the IC50 was in the range of 10000 to 50000 nM.

Take `CN(CCNC1CCNCC1)C[C@H]1O[C@@H](n2cnc3c(N)ncnc32)[C@H](O)[C@@H]1O` [Compound 53-1]: the IC50 fell in the range of 101 to 1000 nM. Then `O=C(CC1NC(N2CCN(c3ccccc3)CC2)=NC1=O)NCC1CCCCC1` (stereo not drawn) [Compound 53-14], with 1000 to 10000 nM; and `CN(CCNC1CCCCC1)C[C@H]1O[C@@H](n2cnc3c(N)ncnc32)[C@H](O)[C@@H]1O` [Compound 54-1], with below 100 nM. For `COc1ccccc1C(O)CC1N=C(N2CCN(c3ccccc3)CC2)NC1=O` (stereo not drawn) [Compound 54-14], the concentration for half-maximal inhibition (IC50) lay within 10000 to 50000 nM. Turning to `CN(CCNCCc1c[nH]c2ccccc12)C[C@H]1O[C@@H](n2cnc3c(N)ncnc32)[C@H](O)[C@@H]1O` [Compound 55-1], the IC50 is below 100 nM. The result for `COc1ccccc1C(=O)CC1NC(N2CCC(O)(c3ccccc3)CC2)=NC1=O` (stereo not drawn) [Compound 55-14] reads 101 to 1000 nM; that for `CN(CCNc1ccccn1)C[C@H]1O[C@@H](n2cnc3c(N)ncnc32)[C@H](O)[C@@H]1O` [Compound 56-1], 101 to 1000 nM. In the case of `O=C(CC1NC(N2CCc3ccccc3C2)=NC1=O)Nc1ccc(Cl)cc1` (stereo not drawn) [Compound 56-14], the concentration for half-maximal inhibition (IC50) is 101 to 1000 nM. The result for `CN(CCNc1ccccc1)CC1O[C@@H](n2cnc3c(N)ncnc32)[C@H](O)[C@@H]1O` (stereo partly drawn) [Compound 57-1] reads below 100 nM.

For `O=C(CC1NC(N2CCC(c3ccccc3)CC2)=NC1=O)Nc1ccc(Cl)cc1` (stereo not drawn) [Compound 57-14], the IC50 lay within 1000 to 10000 nM. The result for `CC(CO)NCCN(C)C[C@H]1O[C@@H](n2cnc3c(N)ncnc32)[C@H](O)[C@@H]1O` (stereo partly drawn) [Compound 58-1] reads below 100 nM. The result for `O=C(CC1NC(N2CCN(c3ccccc3)CC2)=NC1=O)Nc1ccc(Cl)cc1Cl` (stereo not drawn) [Compound 58-14] reads 101 to 1000 nM; that for `COCCNCCN(C)C[C@H]1O[C@@H](n2cnc3c(N)ncnc32)[C@H](O)[C@@H]1O` [Compound 59-1], 101 to 1000 nM; that for `O=C(CC1NC(N2CCN(c3ccccc3)CC2)=NC1=O)Nc1ccc(Cl)c(Cl)c1` (stereo not drawn) [Compound 59-14], 101 to 1000 nM. Consider `CN(CCNCCc1ccccc1Cl)C[C@H]1O[C@@H](n2cnc3c(N)ncnc32)[C@H](O)[C@@H]1O` [Compound 60-1], for which the IC50 is below 100 nM. The result for `COc1ccccc1NC(=O)CC1NC(N2CCN(c3ccccc3)CC2)=NC1=O` (stereo not drawn) [Compound 60-14] reads 10000 to 50000 nM; that for `CN(CCNCCc1ccc(Cl)cc1)C[C@H]1O[C@@H](n2cnc3c(N)ncnc32)[C@H](O)[C@@H]1O` [Compound 61-1], below 100 nM. With `COc1cccc(NC(=O)CC2NC(N3CCN(c4ccccc4)CC3)=NC2=O)c1` (stereo not drawn) [Compound 61-14], the IC50 was in the range of 10000 to 50000 nM. The result for `CCC(COC)NCCN(C)C[C@H]1O[C@@H](n2cnc3c(N)ncnc32)[C@H](O)[C@@H]1O` (stereo partly drawn) [Compound 62-1] reads 101 to 1000 nM; that for `COc1ccc(NC(=O)CC2NC(N3CCN(c4ccccc4)CC3)=NC2=O)cc1` (stereo not drawn) [Compound 62-14], 1000 to 10000 nM. Regarding `CN(CCNCCOc1ccccc1)C[C@H]1O[C@@H](n2cnc3c(N)ncnc32)[C@H](O)[C@@H]1O` [Compound 63-1], the IC50 was below 100 nM. The result for `COc1cc(Cl)ccc1NC(=O)CC1NC(N2CCN(c3ccccc3)CC2)=NC1=O` (stereo not drawn) [Compound 63-14] reads 101 to 1000 nM; that for `CNCCNC[C@H]1O[C@@H](n2cnc3c(N)ncnc32)[C@H](O)[C@@H]1O` [Compound 64-1], 101 to 1000 nM. Then `COc1cc(NC(=O)CC2NC(N3CCN(c4ccccc4)CC3)=NC2=O)ccc1Cl` (stereo not drawn) [Compound 64-14], with 1000 to 10000 nM; and `CN(CCNC1CCCC1)C[C@H]1O[C@@H](n2cnc3c(N)ncnc32)[C@H](O)[C@@H]1O` [Compound 65-1], with 101 to 1000 nM; and `O=C(CC1NC(N2CCN(c3ccccc3)CC2)=NC1=O)Nc1ccc2c(c1)OCO2` (stereo not drawn) [Compound 65-14], with 10000 to 50000 nM.

Regarding `CC1CCCCN1CCCNCCN(C)C[C@H]1O[C@@H](n2cnc3c(N)ncnc32)[C@H](O)[C@@H]1O` (stereo partly drawn) [Compound 66-1], the IC50 lay in the range of 101 to 1000 nM. Take `Cc1cc(Cl)ccc1NC(=O)CC1NC(N2CCN(c3ccccc3)CC2)=NC1=O` (stereo not drawn) [Compound 66-14]: the IC50 was 1000 to 10000 nM.

By IC50 is commonly meant the point on the concentration scale where inhibition reaches its midpoint.
